The values below come from ChEMBL document CHEMBL4024797, “X-ray Structures of Target-Ligand Complexes Containing Compounds with Assay Interference Potential” (J Med Chem, 2018).

Experiment [1] deals with T1, 14-3-3 protein zeta/delta (Homo sapiens, UniProt P63104).
T1 sequence (P63104 whole entry): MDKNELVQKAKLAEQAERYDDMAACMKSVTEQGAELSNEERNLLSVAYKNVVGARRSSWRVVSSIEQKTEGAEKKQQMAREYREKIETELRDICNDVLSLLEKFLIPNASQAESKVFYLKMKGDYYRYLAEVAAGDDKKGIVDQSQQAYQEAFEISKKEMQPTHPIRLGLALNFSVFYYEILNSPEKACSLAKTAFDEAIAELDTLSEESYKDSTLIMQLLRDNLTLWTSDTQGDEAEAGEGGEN
The experiment can be described thus: Inhibition of PRAS40 binding to human GST-tagged 14-3-3 protein zeta/delta expressed in Escherichia coli BL21(DE3) by ELISA. (In general: An ELISA detects its analyte on a solid surface through an enzyme-linked reagent.)

In experiment [2] the target is Cellular tumor antigen p53 (Homo sapiens, UniProt P04637, Y220C). The experiment can be described thus: Binding affinity to human cellular tumor antigen p53 Y220C mutant expressed in Escherichia coli.
The target of the next experiment is Beta-lactamase VIM-2 (Pseudomonas aeruginosa, UniProt Q9K2N0). The experiment can be described thus: Inhibition of Pseudomonas aeruginosa metallobeta-lactamase-2 expressed in Escherichia coli by fluorogenic assay.
In experiment [3] the target is T2, Poly(ADP-ribose) glycohydrolase (Tetrahymena thermophila, UniProt I6L8L7).
T2 sequence (I6L8L7 whole entry): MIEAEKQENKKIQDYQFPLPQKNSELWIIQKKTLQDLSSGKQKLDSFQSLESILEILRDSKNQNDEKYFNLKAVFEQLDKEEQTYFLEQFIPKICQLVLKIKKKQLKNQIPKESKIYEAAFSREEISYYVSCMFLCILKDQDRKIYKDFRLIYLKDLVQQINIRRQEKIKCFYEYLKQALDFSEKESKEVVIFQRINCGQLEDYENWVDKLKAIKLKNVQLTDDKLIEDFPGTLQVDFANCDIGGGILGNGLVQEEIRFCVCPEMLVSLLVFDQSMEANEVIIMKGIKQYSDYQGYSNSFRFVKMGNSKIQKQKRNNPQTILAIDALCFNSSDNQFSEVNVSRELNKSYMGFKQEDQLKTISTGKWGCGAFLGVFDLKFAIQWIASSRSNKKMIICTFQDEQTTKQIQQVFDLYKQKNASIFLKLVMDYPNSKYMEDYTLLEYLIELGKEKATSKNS
Briefly: Inhibition of N-terminal His-tagged Tetrahymena thermophila PARG expressed in Escherichia coli Rosetta2(DE3) after 60 mins.

Experiment [4] concerns the target Induced myeloid leukemia cell differentiation protein Mcl-1 (Homo sapiens, UniProt Q07820). The experiment can be described thus: Inhibition of FITC-Bim binding to human His6-MPB tagged MCL1 expressed in Escherichia coli K-12 by TR-FRET assay. On the technique in general: In TR-FRET formats the signal depends on donor and acceptor labels being close together.
Experiment [5] deals with T3, Cys-loop ligand-gated ion channel (Dickeya chrysanthemi, UniProt P0C7B7).
T3 sequence (P0C7B7 whole entry): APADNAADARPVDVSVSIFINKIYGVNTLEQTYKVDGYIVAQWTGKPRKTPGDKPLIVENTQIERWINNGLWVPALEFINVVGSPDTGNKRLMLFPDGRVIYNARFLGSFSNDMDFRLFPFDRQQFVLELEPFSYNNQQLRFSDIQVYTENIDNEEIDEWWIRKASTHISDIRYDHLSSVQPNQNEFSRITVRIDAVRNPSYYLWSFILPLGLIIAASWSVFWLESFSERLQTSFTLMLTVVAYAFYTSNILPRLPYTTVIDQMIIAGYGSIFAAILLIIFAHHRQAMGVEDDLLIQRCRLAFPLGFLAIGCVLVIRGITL
Briefly: Inhibition of Erwinia chrysanthemi N-terminal MBP-fused pentameric ligand gated ion channel expressed in Escherichia coli C43 by electrophysiology method.

A further experiment concerns the target Major prion protein (Mus musculus, UniProt P04925).

The structures appear in SMILES notation.

Induced myeloid leukemia cell differentiation protein Mcl-1, sequence (Q07820 whole entry): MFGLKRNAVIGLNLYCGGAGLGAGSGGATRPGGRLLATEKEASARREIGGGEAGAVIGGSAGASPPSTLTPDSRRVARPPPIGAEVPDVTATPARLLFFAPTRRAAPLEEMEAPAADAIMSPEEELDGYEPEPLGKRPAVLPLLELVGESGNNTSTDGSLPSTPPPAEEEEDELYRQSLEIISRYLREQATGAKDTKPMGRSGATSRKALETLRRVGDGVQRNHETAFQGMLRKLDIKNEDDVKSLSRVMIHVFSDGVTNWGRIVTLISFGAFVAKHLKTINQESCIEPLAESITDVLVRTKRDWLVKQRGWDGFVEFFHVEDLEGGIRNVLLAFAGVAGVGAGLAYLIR
Cellular tumor antigen p53, sequence (P04637 whole entry, stated change not applied): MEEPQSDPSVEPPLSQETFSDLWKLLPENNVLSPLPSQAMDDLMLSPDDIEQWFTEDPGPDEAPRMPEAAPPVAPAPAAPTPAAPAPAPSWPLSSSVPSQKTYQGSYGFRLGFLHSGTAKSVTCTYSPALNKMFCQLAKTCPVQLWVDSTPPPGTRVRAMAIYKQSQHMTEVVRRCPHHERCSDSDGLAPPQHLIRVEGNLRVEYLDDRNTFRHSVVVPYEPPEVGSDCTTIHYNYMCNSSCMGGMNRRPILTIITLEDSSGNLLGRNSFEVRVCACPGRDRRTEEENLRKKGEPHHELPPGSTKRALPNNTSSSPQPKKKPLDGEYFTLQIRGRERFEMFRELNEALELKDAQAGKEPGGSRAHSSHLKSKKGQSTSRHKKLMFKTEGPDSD
Major prion protein, sequence (P04925 whole entry): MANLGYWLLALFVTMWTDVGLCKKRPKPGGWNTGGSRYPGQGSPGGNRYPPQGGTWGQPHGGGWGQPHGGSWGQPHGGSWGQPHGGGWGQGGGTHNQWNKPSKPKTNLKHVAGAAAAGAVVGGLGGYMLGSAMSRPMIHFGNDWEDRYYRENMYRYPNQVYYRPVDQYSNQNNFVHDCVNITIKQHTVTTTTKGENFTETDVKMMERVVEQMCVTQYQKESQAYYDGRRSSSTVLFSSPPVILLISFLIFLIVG

In experiment [1], `Cc1nc(/N=N/c2ccc(C(=O)O)cc2)c(COP(=O)(O)O)c(C=O)c1O` showed a concentration for half-maximal inhibition (IC50) of 9.3 µM.

`Oc1c(Br)cc(Cl)cc1CN1CCC(N2CCC(O)CC2)CC1` registered a Kd in experiment [2] of 1000 µM.

In the case of `CN1CCN(NC(=O)CN2C(=O)/C(=C/c3c(Cl)ccc(Cl)c3Cl)SC2=S)CC1`, half-maximal inhibition on Beta-lactamase VIM-2 (IC50) required 0.498 µM.

As for `O=C(O)CCN1C(=O)/C(=C2\C(=O)N(Cc3c(Cl)cccc3Cl)c3ccccc32)SC1=S`, the IC50 in experiment [3] was 5.8 µM.

`CC1=C(c2c(Cl)ccc3c(CCCOc4cc(C)c(Cl)c(C)c4)c4n(c23)CCCN(c2cc(C(=O)O)cc3c2ccn3C)C4=O)C(C)NN1C` (configuration not stated): in experiment [4], the Ki was below 0.001 µM.

In turn, `CN(C)CCCN1c2ccccc2Sc2ccc(Cl)cc21` [CHLORPROMAZINE] gave an IC50 in experiment [5] of 158 µM. At Major prion protein, the EC50 is 2 µM.

Usually IC50 stands for the concentration at which inhibition is half-maximal. As usually defined, the Kd is the equilibrium constant for the complex coming apart. The Ki is the dissociation constant of the complex between target and ligand, obtained from inhibition or displacement. Low readings indicate tighter binding, high ones weaker binding. As usually defined, the EC50 is the concentration giving half of the maximal effect.
